Measured values as given in patent publication EP0537947A1, “Naphthoquinone derivatives for the treatment of parasitic infections” (THE WELLCOME FOUNDATION LIMITED, priority 1991, dated 1993).
Structures can show the parent of a compound that is named as a salt. Where two headings read alike, the source gives them in different places.

Assays:
Plasmodium yoelii = assay: In vivo activity against Plasmodium yoelii in mice (modified 4-day suppressive test)
Procedure: Compounds A and B were administered orally and intravenously, and compound (I) was administered orally only, in the manner described below.
The test method is a modified version of the 4-day suppressive test. The YM strain of P.yoelii was maintained in mice by twice weekly passage. Infected blood was collected and diluted with normal saline to give an inoculum of 3x10⁶ parasitized enythrocytes/ml. On the morning of Day 1 the test animals (male CD-1 mice weighing 18-20g) were infected intravenously via the tail vein with 0.1ml of inoculum/mouse.
Test compounds A, B and (I) were formulated by ball milling in 0.25% celacol with stainless steel balls. The total requirement was formulated at the beginning of a test and thereafter stored at 4°C.
Each test compound was administered orally (p.o.) to four or more usually five groups of mice, each group receiving a different dose level (dilution). A further group of mice was administered celacol only, as a control (ie. a total of 30 mice are used to obtain each ED₅₀). The mice were dosed orally in the late afternoon of Day 1 and in the early morning and late afternoon of days 2, 3 and 4, giving a total of seven doses in four days or 24 hours post-infection i.e. on day 2 when given as a single dose.
I.v. formulations of test Compounds A and B were prepared by dissolving the compound in water immediately before use, and administered via the tail vein as a single dose 24 hours post-infection, i.e. on day 2.
On the morning of day 5 smears of tail blood were prepared from each mouse and the parasitaemia counted. Data were analysed to yield ED₅₀ values by the best fit to a sigmoidal dose response curve.

Solubility in water = type: physicochemical; conditions: statement in words
[1] = Plasmodium yoelii, po, dosing schedule 1 x p.o. (single dose 24 hours post-infection), YM strain of P.yoelii, male CD-1 mice, parasitaemia on day 5, read-out: ED50

| Molecule | ED50 (Plasmodium yoelii; [1]) | ED50 (Plasmodium yoelii; Plasmodium yoelii, po, dosing schedule 7 x p.o. (seven doses in four days), YM strain of P.yoelii, male CD-1 mice, parasitaemia on day 5, read-out: ED50) | solubility in water (Solubility in water) | ED50 (Plasmodium yoelii; Plasmodium yoelii, iv, 1 x i.v., calculated in terms of the amount of compound (I) administered, read-out: Weight adjusted ED50) | ED50 (Plasmodium yoelii; Plasmodium yoelii, iv, dosing schedule 1 x i.v. (single dose 24 hours post-infection, dissolved in water), YM strain of P.yoelii, male CD-1 mice, parasitaemia on day 5, read-out: ED50) | ED50 (Plasmodium yoelii; Plasmodium yoelii, po, 1 x p.o., calculated in terms of the amount of compound (I) administered, read-out: Weight adjusted ED50) | Weight adjusted ED50 (Plasmodium yoelii; 7 x p.o., calculated in terms of the amount of compound (I) administered) | ED50 (Plasmodium yoelii; dosing schedule 7 x p.o. (seven doses in four days), YM strain of P.yoelii, male CD-1 mice, parasitaemia on day 5) |
| --- | --- | --- | --- | --- | --- | --- | --- | --- |
| O=C1C(O)=C([C@H]2CC[C@H](c3ccc(Cl)cc3)CC2)C(=O)c2ccccc21 [Compound (I), 2-[trans-4-(4-Chlorophenyl)cyclohexyl]-3-hydroxy-1,4-naphthoquinone, reference compound] | 0.09 mg/kg | 0.03 mg/kg |  |  |  |  |  |  |
| O=C1C(OP(=O)(O)O)=C([C@H]2CC[C@H](c3ccc(Cl)cc3)CC2)C(=O)c2ccccc21 [Compound (B), 3-[trans--4-(4-Chlorophenyl)cyclohexyl]-1,4-dioxo-2-naphthylphosphate N-methylglucosamine salt] | 0.23 mg/kg |  | readily soluble in cold water | 0.12 mg/kg | 0.27 mg/kg | 0.1 mg/kg |  |  |
| 3-[trans-4-(4-Chlorophenyl)cyclohexyl]-1,4-dioxo-2-naphthylphosphate bis diethanolamine salt [Compound (A)] |  |  |  |  |  |  | 0.056 mg/kg | 0.1 mg/kg |
